Data as given in patent US20020061346A1, “FOOD COMPOSITION” (priority 1998, published 2002).

Assay: Post-prandial study: carotenoid levels in triglyceride-rich blood fractions after a tomato-based meal with plant sterols
Assay type: in vivo, human
Conditions: 20 healthy adult volunteers; single meal with 130 g chunky tomato sauce (5.2 mg lycopene, 2.2 mg beta-carotene) and 2.2 g plant sterols; blood samples over 8 hours; pre-meal level taken as zero
Description: A post-prandial study was undertaken, in which 20 healthy, adult, human volunteers, 10 male, 10 female (age 30-65) were provided with an early-morning tomato-based meal, after which at regular intervals and for a period of 8 hours blood samples were taken. In the triglyceride-rich fractions (mainly consisting of chylomicrons that carry the digested fat and fat-soluble components from the intestine to the liver) of those blood samples the levels of lycopene, beta-carotene and also vitamin A were determined (using straight-phase HPLC analysis using a nucleosil cyanyl-bonded column). The levels of vitamin A (measured as retinyl palmitate) and beta-carotene can be taken together as a measure for beta-carotene uptake, as during absorption (or shortly thereafter) beta-carotene is partly converted into vitamin A. The integrated post-prandial response can then be used to estimate the bioavailability of beta-carotene and lycopene from a meal.
The meal consisted of 200 g of cooked macaroni, 130 g of chunky tomato sauce (containing more chunks of tomato flesh than most commercial tomato sauces) made of yellow, orange and super red varieties, 80 g of lean cooked ham (gammon), 20 g of white bread, and 11.6 g of sunflower oil (stripped, i.e. low in antoixidants) and 2.2 g of plansterols. […]

| Compound | post-prandial response (level in triglyceride-rich blood fractions, FIG. 1) |
| --- | --- |
| CC1=C(/C=C/C(C)=C/C=C/C(C)=C/C=C/C=C(C)/C=C/C=C(C)/C=C/C2=C(C)CCCC2(C)C)C(C)(C)CCC1 [beta-carotene] | clear post-prandial response |
| CC(C)=CCC/C(C)=C/C=C/C(C)=C/C=C/C(C)=C/C=C/C=C(C)/C=C/C=C(C)/C=C/C=C(\C)CCC=C(C)C [lycopene] | clear post-prandial response |
